Test results as given in a melting point compilation (Tetko et al.; mined from patent text by program, amines drawn as free bases though some values may be those of a salt).

Compared with `Brc1c[nH]c2ccc(Nc3ncnc4cc(-c5ccccc5)sc34)cc12`, `COc1ccc2c(-c3ccccc3)nc(=NO)c(=O)n(C)c2c1` is higher in melting point: 201 to 203 °C for the first, 206 to 207 °C for the second.

`CC(C)Cn1nc(-c2ccccc2)cc(COS(C)(=O)=O)c1=O` and `CC(C)Cc1nc2ccc(Cl)cc2c(-c2ccccc2)c1CO` cannot be ordered by melting point: 130 °C for the first, 130 to 131 °C for the second.

First: CCOC(=O)C(CCCCNC(=O)OC(C)(C)C)NC(=O)C=CC(=O)c1ccccc1 (stereo not drawn)
Second: CCCC[C@H](NC(=O)[C@@H](NC(=O)OCc1ccccc1)[C@@H](C)CC)C(=O)CSCc1ccco1
The melting point of the first is lower: 91 to 94 °C for the first, 101 to 103 °C for the second.

`CCC1(C)CC(NC(=O)c2ccccc2)C(C)C(C)(CC)N1OC(C)c1ccccc1` (stereo not drawn) and `CC(C)N1CC(CCl)C(c2ccccc2)(c2ccccc2)C1=O` (stereo not drawn) cannot be ordered by melting point: 112 to 147 °C for the first, 114 to 116 °C for the second.

First: Fc1cccc(Cl)c1CSc1nc2cnccc2[nH]1
Second: Cn1nc2c(-c3ccc(Cl)cc3Cl)cccc2c1CCC#N
The melting point of the first is higher: 224 to 226 °C for the first, 192 to 193 °C for the second.

Compared with `OC(CSC1CCCCC1)CSC1CCCCC1`, `COc1ccc(-c2sc(N)c(C(=O)c3ccc(Cl)cc3)c2CN(C2CCCCC2)C2CCCCC2)cc1` is higher in melting point: 85.5 to 88.5 °C for the first, 178 to 182 °C for the second.

Compared with `COC1C(CO)OC(n2c3ccc(C=O)cc3c3c4c(c5c6cc(C=O)ccc6[nH]c5c32)C(=O)NC4=O)C(O)C1O` (stereo not drawn), `Cn1c2ccc(Cl)cc2c2c(CBr)nn(-c3ccccc3)c(=O)c21` is lower in melting point: > 300 °C for the first, 253 to 254 °C for the second.

First: O=C(c1cccc(F)c1)N1CCC2(CCn3c(nc(-c4ccncn4)cc3=O)N2)C1 (stereo not drawn)
Second: NC(=O)CNC(=O)c1ccnc(-c2cccc3cc(Cc4cccc(C(F)(F)F)c4)sc23)c1
The melting point of the first is higher: 296 to 298 °C for the first, 176 to 177 °C for the second.

Compared with `O=C1CCC(c2ccc3c(c2)NC(=O)CS3)=NN1`, `COc1ccc(C(=O)c2c(N)sc3c2CCCC3)c2ccccc12` is lower in melting point: 299 to 302 °C for the first, 227 to 229 °C for the second.

First: Cc1nc(-c2ccccc2)[nH]c(=O)c1C
Second: COc1ccc(Nc2nc3ccccc3c(=O)[nH]2)c(C)c1
The melting point of the first is lower: 205 to 207 °C for the first, 270 to 272 °C for the second.

First: N#Cc1cc(Oc2ccc(Cl)cc2)ccc1N
Second: Cc1cc(Oc2ccc([N+](=O)[O-])cc2)c2ncccc2c1
The melting point of the first is lower: 116 to 118 °C for the first, 143 °C for the second.

Compared with `O=C(O)c1cc(Cl)cc2ccoc12`, `O=C(O)c1cccc2cc(-c3ccc(Cl)cc3)oc12` is higher in melting point: 212 to 215 °C for the first, 228 to 230 °C for the second.

Compared with `CC(C)(C)NS(=O)(=O)c1cccc(-c2ccc3cnc(Nc4ccc(=O)[nH]c4)nn23)c1`, `CS(=O)(=O)c1ccc(-n2nc(-c3ccc(F)cc3)cc2C(F)(F)F)cc1` is lower in melting point: 270 to 271 °C for the first, 158 to 160 °C for the second.

First: Cc1noc(NS(=O)(=O)c2ccccc2-c2cc3ccccc3n2S(=O)(=O)c2ccccc2)c1C
Second: O=c1ccn(-c2cccc(Cl)c2)nc1-c1ccnn1-c1ccccc1
The melting point of the first is higher: 207 to 209 °C for the first, 146 to 147 °C for the second.

First: Cc1nc(C)c(Cl)c(NCc2cc(OCC(F)(F)F)c(OCc3ccccc3)c(Br)n2)n1
Second: CN1C(=O)C(Br)=C(c2cn(C(=O)OC(C)(C)C)c3ccc(OCc4ccccc4)cc23)C1=O
The melting point of the first is lower: 97 to 98 °C for the first, 155 °C for the second.

First: Cn1nnnc1-c1cn(C)c2cc(S(C)=O)ccc2c1=O (stereo not drawn)
Second: CSc1cc2c(cn1)c(=O)n1nc(C)cc1n2C
The melting point of the first is lower: 237 to 240 °C for the first, > 300 °C for the second.

First: CC(C)S(=O)(=O)c1nc(OS(C)(=O)=O)cs1
Second: COC(=O)c1ccc(Cl)cc1NS(C)(=O)=O
The melting point of the first is lower: 56.5 to 58.5 °C for the first, 126 to 128 °C for the second.

First: O=C(NCc1ccc(C(F)(F)F)cc1)Nc1cccc2[nH]ccc12
Second: CN1C(=O)C2(COc3cc4c(cc32)OCCO4)c2c(NC(=O)c3ccccc3C(F)(F)F)cccc21 (stereo not drawn)
The melting point of the first is lower: 178 °C for the first, 241 to 243 °C for the second.

First: CC1(C)c2cc(O)ccc2OC1CO (stereo not drawn)
Second: CCCCOc1ccc2c(c1)C(N(C)S(C)(=O)=O)C(O)C(C)(C)O2 (stereo not drawn)
The melting point of the first is lower: 79 to 80 °C for the first, 138 to 140 °C for the second.

First: CC#CCOc1ccc(S(=O)(=O)N(C)C(C(=O)NO)C(C)(C)SCCN2CCCC2)cc1 (stereo not drawn)
Second: CCCCOC(=O)N1CCN(C(=O)c2cc(S(=O)(=O)N(C)C)ccc2N)CC1
The melting point of the first is lower: 55 to 57 °C for the first, 175 to 177 °C for the second.

First: CCNc1ccc2c(c1)CN(c1cc3c(cc1F)c(=O)c(C(=O)O)cn3CC)C2
Second: COc1cc(/C=C2/C(C)=C(CC(=O)O)c3cc(F)ccc32)cc(Br)c1OC
The melting point of the first is higher: 246 to 248 °C for the first, 164 °C for the second.

Compared with `CN1CCC(c2[nH]c(=O)c3ccccc3c2-c2ccc(Cl)cc2)CC1`, `Cc1[nH]c2ccccc2c1CCCN1CCC(c2noc3cc(F)ccc23)CC1` is lower in melting point: 254 to 256 °C for the first, 208 to 210 °C for the second.

First: CCOC(=O)c1ccc(OCc2nc(-c3ccccc3)oc2C)c(OC)c1
Second: COc1cc(CCCC(=O)O)ccc1OCc1nc(-c2ccco2)oc1C
The melting point of the first is lower: 103 to 104 °C for the first, 129 to 130 °C for the second.

First: CC(C(=O)O)c1ccc2nc(-c3ccccc3)ccc2c1 (stereo not drawn)
Second: O=C(O)C(c1ccccc1)n1c(=O)c(=O)[nH]c2ccccc21 (stereo not drawn)
The melting point of the first is lower: 161 to 162 °C for the first, 242 to 244 °C for the second.

First: CC(C)(C)C1CC(=Cc2ccccc2)C(=O)C(=Cc2ccccc2)C1 (stereo not drawn)
Second: O=[N+]([O-])c1ccc(Cl)cc1OCC=Cc1ccccc1
The melting point of the first is higher: 137 to 139 °C for the first, 74.5 to 75.5 °C for the second.

Compared with `COC(=O)c1ccc(OC)c(Nc2cc(Cl)cc(Cl)c2)c1`, `CC(C)(C)NC(=S)Nc1cc(Cl)cc(Cl)c1` is higher in melting point: 134 to 135 °C for the first, 164 to 165 °C for the second.

First: CC1CCC(=NNc2ccccc2)c2ncc(CC(=O)O)c(=O)n21 (stereo not drawn)
Second: O=C(O)C1Oc2ccccc2C2(CC2)c2cccc(Cl)c2O1 (stereo not drawn)
The melting point of the first is higher: 160 to 162 °C for the first, 154 to 158 °C for the second.

First: CCOC(=O)COc1cc(C2C(C(=O)OC)=C(C)NC(C)=C2C(=O)OC)ccc1OC
Second: CCCC(=O)c1ccc(C(CCC)CC(=O)Nc2cc(C(N)=O)ccc2C(C)(C)C)c(OC)c1 (stereo not drawn)
The melting point of the first is lower: 170 °C for the first, 193 to 194 °C for the second.

First: CCCc1cccc2c(/C=C(\C)C(=O)O)cc(OC)c(O)c12
Second: COc1ccc(SCC(=O)c2ccccc2)cc1C
The melting point of the first is higher: 67 to 68 °C for the first, 41 to 43 °C for the second.

First: COCC(=O)Nc1cc2c(cc1C#N)C(Nc1ccc(C(=O)OC(C)(C)C)cc1)CC2 (stereo not drawn)
Second: COc1ccc(NC(=O)OC(C)(C)C)c(C(=O)C2CC2)c1
The melting point of the first is higher: 163 to 164 °C for the first, 96 to 97 °C for the second.

First: CC(=O)Nc1c(Cl)cc(CC(=O)O)cc1Cl
Second: CC(=O)n1c(=O)oc2c(Cl)c(Cl)c(Cl)cc21
The melting point of the first is higher: 209 to 211 °C for the first, 171 to 172 °C for the second.

Compared with `COc1cc2ncn([C@H](C)[C@](O)(Cn3cncn3)c3ccc(F)cc3F)c(=O)c2cc1OC`, `COc1cc2ncnc(Nc3ccc(F)c(Cl)c3)c2cc1OCC1(C)COCOC1` is higher in melting point: 157 to 159 °C for the first, 212 to 213 °C for the second.

First: COc1ccccc1[C@@]1(O)[C@H](O)CC(c2ccccc2)(c2ccccc2)[C@@H]2CN(C(=O)Cc3ccccc3N3CCCC3)C[C@@H]21 (racemic)
Second: CC(C)(C)OC(=O)[C@@H]1CC[C@H](CC(=O)N[C@@H](Cc2ccc(OCc3c(Cl)cccc3Cl)cc2)C(=O)O)N1Cc1ccccc1
The melting point of the first is higher: 236 °C for the first, 80 to 83 °C for the second.

Compared with `COC(=O)CCCc1cc2nc(Cl)ccc2n1S(=O)(=O)c1ccc2nc(NC(C)=O)sc2c1`, `Cc1nc(C)c(C(=O)Nc2ccc(-n3nc(C(F)(F)F)cc3C3CC3)cc2)s1` is lower in melting point: 274 °C for the first, 117 to 122 °C for the second.

First: COc1cc(Nc2nccc(-c3ccc(N4CCNC(CCO)C4)nc3)n2)cc(OC)c1OC (stereo not drawn)
Second: CCOC(=O)c1cnc(CCOC)nc1NCc1ccc(-c2ccccc2-c2nnn[nH]2)cc1
The melting point of the first is higher: 150 to 151 °C for the first, 122 to 124 °C for the second.

First: COC(=O)Cc1sc(S)nc1C
Second: COC(=O)c1c(C)[nH]c(C)c1C1=CC(=O)c2ccccc2C1=O
The melting point of the first is lower: 139 to 140 °C for the first, 209 to 210 °C for the second.

First: COCCN(CCOC)c1ccc(P(=O)(C(=O)c2c(C)cc(C)cc2C)C(=O)c2c(C)cc(C)cc2C)cc1
Second: CCCc1ccccc1OCCCCCOc1ccc2c(=O)cc(C(=O)OCC)oc2c1CCC
The melting point of the first is higher: 103 to 106 °C for the first, 73 to 75 °C for the second.

First: Clc1ccc2nc(CN3CCN(c4ccc(Cl)c(Cl)c4)CC3)cn2c1
Second: CC(CO)NC(=O)COc1cc(Cl)ccc1C(=O)NCCN1CCN(Cc2ccc(Cl)c(Cl)c2)CC1 (stereo not drawn)
The melting point of the first is higher: 122 to 124 °C for the first, 115 to 116 °C for the second.

First: CCOC(=O)c1cn(C2CCCCC2)nc1O
Second: O=C(CCc1ccccc1)N[C@H]1CCCN2CCC[C@@H](C(=O)O)N2C1=O
The melting point of the first is lower: 91 to 92 °C for the first, 198 to 202 °C for the second.

Compared with `O=C1CC(O)CN1S(=O)(=O)c1ccc(N2CCCCCC2)cc1` (stereo not drawn), `CC(=O)NC[C@H]1CN(c2ccc(C3C=CS(=O)(=O)CC3)cc2)C(=O)O1` (stereo partly drawn) is higher in melting point: 170 to 172 °C for the first, 187 to 189 °C for the second.

First: CC(C)(COC(=O)c1ccc(C(=O)O)cc1)COC(=O)c1ccc(C(=O)O)cc1
Second: O=C(Nc1ccccc1Oc1ccc(C(=O)O)c(C(=O)O)c1)c1cccc([N+](=O)[O-])c1
The melting point of the first is higher: 287 to 288 °C for the first, 184 to 190 °C for the second.

First: C=C(C)c1ccc2c(c1)Cc1ccccc1O2
Second: CN1CCN(c2nnc3c4ccccc4c(Cl)cn23)CC1
The melting point of the first is lower: 62 to 64 °C for the first, 150 to 153 °C for the second.

First: CC12CC(=CO)C(=O)C=C1CCC1C2CCC2(C)C1C=CC2(C)O (stereo not drawn)
Second: CC(=O)C1=CCC2C3CCC4CC5OC5CC4(C)C3CCC12C (stereo not drawn)
The melting point of the first is higher: 176 °C for the first, 145 to 149 °C for the second.

Compared with `O=C(O)[C@@H]1C[C@H]2C[C@@H](C=Cc3nsnc3O)CC[C@H]2CN1` (racemic), `O=C(O)c1cc2c(c(C(=O)O)c1)NCCCC2` is higher in melting point: 239 to 242 °C for the first, 287 to 288 °C for the second.

First: CCC(CC)N(O)C(=O)Nc1ccc(C)c(NC(=O)N(O)C(CC)CC)c1
Second: [N-]=[N+]=C(C(=O)CC1CC(=O)N1)C(=O)OCc1ccc([N+](=O)[O-])cc1 (stereo not drawn)
The melting point of the first is higher: 175 to 177 °C for the first, 114 to 116 °C for the second.

First: N#Cc1cc2c(c(C(=O)O)c1)NCCC2
Second: NNC1=NOCc2ccc(Cl)cc21
The melting point of the first is higher: 238 °C for the first, 148 to 149 °C for the second.

First: COC12CC(CCOC(=O)c3cncc(Br)c3)CN(C)C1Cc1cn(C)c3cccc2c13 (stereo not drawn)
Second: Cn1cncc1C(O)(c1ccc(Cl)cc1)c1ccc2c(c1)C(c1cccc(Cl)c1)SCC(=O)N2 (stereo not drawn)
The melting point of the first is lower: 187 to 190 °C for the first, 210 °C for the second.

First: COc1cc(CSc2ccccn2)nc(N)n1
Second: Cc1cc(C)nc(-n2nc(S(=O)(=O)Nc3c(F)cccc3F)nc2C)n1
The melting point of the first is lower: 115 to 116 °C for the first, 228 to 230 °C for the second.

Compared with `Cn1nc2c(N)nc3c(c2c1CCNC(=O)N1CCOCC1)CCCC3`, `CC1(C)COC1(Cn1cncn1)c1ccc(Cl)cc1` (stereo not drawn) is lower in melting point: 187 to 188 °C for the first, 90 to 102 °C for the second.
